The source of these data is ChEMBL document CHEMBL1128893, “Synthesis and characterization of N-(acenaphth-5-yl)-N'-(4-methoxynaphth-1-yl)guanidine as a glutamate release inhibitor and potential anti-ischemic agent” (Bioorg Med Chem Lett, 1995).

The structures appear in SMILES notation.

Assay [1] is described as follows: Inhibition of 45 [Ca2+] flux into rat brain synaptosomes depolarized by elevated potassium concentrations. It counts as functional, subcellular.
Assay [2] concerns the target Sodium channel alpha subunits; brain (Types I, II, III) (Rattus norvegicus) (UniProt P04775+P04774+P08104). The conditions noted are these: at 3 µM.
Description: Inhibition of veratridine-induced glutamate release, blockade of rat brain synaptosome voltage-gated sodium channels at 3 uM
Assay [3] deals with T1, Sodium channel protein type 2 subunit alpha (Homo sapiens, UniProt Q99250). In words: (§1) Blockade of synaptosomal sodium channels, inhibition of [14C]guanidinium ion flux into CHO cells expressing Type II sodium channel. The assay is classed as functional, cell-based.
T1 sequence (Q99250 whole entry): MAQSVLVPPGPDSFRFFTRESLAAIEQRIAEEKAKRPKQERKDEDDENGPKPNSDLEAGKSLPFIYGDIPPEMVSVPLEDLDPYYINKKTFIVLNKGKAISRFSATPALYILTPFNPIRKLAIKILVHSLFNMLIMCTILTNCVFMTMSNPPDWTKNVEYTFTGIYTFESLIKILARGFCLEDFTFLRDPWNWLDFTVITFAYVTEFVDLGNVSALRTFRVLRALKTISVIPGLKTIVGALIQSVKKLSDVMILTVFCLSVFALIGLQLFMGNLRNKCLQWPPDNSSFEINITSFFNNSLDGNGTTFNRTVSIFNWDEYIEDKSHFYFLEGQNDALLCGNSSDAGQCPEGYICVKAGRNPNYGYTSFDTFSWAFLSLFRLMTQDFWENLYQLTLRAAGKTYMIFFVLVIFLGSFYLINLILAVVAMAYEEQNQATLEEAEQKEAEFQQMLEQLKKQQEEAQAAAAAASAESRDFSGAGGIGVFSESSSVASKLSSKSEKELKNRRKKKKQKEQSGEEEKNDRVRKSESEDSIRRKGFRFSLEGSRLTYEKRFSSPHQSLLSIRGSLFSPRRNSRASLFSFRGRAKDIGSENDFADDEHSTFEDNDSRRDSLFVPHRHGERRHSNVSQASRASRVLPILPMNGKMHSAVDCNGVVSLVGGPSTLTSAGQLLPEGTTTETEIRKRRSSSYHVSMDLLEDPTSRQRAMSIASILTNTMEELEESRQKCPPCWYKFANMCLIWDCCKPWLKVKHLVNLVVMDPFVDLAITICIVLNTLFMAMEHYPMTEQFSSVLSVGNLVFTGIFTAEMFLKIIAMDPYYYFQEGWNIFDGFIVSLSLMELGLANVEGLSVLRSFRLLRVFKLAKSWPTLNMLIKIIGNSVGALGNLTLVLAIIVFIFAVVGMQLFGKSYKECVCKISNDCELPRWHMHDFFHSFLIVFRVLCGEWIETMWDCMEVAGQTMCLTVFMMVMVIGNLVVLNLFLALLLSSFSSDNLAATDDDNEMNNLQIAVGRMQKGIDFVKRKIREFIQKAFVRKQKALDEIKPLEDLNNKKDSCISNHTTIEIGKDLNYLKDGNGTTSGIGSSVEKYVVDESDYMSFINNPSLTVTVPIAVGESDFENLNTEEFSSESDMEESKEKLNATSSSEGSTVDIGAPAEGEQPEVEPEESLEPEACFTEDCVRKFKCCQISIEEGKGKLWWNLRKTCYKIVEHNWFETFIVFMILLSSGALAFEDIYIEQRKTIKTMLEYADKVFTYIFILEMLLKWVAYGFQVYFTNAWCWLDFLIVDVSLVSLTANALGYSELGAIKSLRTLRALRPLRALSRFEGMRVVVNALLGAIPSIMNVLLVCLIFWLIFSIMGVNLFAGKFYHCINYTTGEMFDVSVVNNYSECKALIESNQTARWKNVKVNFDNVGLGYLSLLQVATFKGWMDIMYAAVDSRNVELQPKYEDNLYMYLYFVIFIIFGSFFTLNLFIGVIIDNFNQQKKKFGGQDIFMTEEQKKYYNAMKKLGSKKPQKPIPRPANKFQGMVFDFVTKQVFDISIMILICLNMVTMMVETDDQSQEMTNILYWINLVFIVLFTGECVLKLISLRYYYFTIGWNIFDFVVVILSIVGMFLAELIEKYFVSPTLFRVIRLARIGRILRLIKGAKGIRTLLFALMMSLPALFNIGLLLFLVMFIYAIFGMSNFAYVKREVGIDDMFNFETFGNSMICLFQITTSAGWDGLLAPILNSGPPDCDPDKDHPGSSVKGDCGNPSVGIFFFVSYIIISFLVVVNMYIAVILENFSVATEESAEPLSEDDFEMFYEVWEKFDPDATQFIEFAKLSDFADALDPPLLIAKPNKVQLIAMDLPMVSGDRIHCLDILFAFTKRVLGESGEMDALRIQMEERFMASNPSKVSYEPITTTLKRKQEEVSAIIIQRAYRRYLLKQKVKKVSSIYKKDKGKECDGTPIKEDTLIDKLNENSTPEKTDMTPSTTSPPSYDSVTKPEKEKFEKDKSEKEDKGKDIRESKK
In assay [4] the target is T1, Sodium channel protein type 2 subunit alpha. The assay is described as §1.
For assay [5], the species on record is Rattus norvegicus. Kind of assay: Compound was evaluated for the inhibition of K+ -evoked glutamate release through block of voltage-gated [Ca2+] -channels, in the rat brain synaptosomal preparations. It counts as functional, organism-based.

As usually defined, the IC50 is the concentration needed to halve the response being measured. In the case of `Nc1nc2ccc(OC(F)(F)F)cc2s1` [RILUZOLE], the IC50 in assay [1] was over 30000 nM; in assay [3], 2200 nM. The same compound returned a Block in assay [2] of 49%.

For `CN1CCN(c2ncc(-c3cc(Cl)cc(Cl)c3Cl)c(N)n2)CC1` [SIPATRIGINE], 2550 nM corresponded to half-maximal inhibition in assay [4] (IC50).

Take `COc1ccc(/N=C(\N)Nc2ccc3c4c(cccc24)CC3)c2ccccc12`: the half-maximal inhibitory concentration (IC50) in assay [1] was found to be 2240 nM; in assay [5] it was 1000 nM; in assay [3] it was 1310 nM. Besides, the Block in assay [2] was determined as 87%.

With `N=C(Nc1ccc2c3c(cccc13)CC2)Nc1ccc2c3c(cccc13)CC2`, the concentration for half-maximal inhibition (IC50) in assay [1] came out at 1130 nM; in assay [5], 800 nM; in assay [3] it was 2030 nM.
